# Legend:
# corn = test: Greenhouse corn pot trial with magnesium lactate; format: in vivo
# Protocol: The corn trial that was conducted using MgL had one corn seed planted in each of the 60 individually marked pots using six different treatments in a randomized complete block design. Plants were grown in the greenhouse under controlled and ideal conditions. All pots were handled and cared for the same exact way throughout their entire growing season. During this trial the emergence hours, the number of plants emerged, and plant height measurements were taken at specific plant stages and recorded. Several measurements were documented when the trial was harvested which were V10 plant height, V10 chlorophyll readings, stalk diameter, and biomass.
# soybean = test: Greenhouse soybean pot trial with magnesium lactate; format: in vivo
# Protocol: Materials and Methods: One soybean seed was planted in each of the 60 individually marked pots using six different treatments in a randomized complete block design. Plants were grown in the greenhouse under controlled and ideal conditions. All pots were handled and cared for the same exact way throughout their entire growing season. Several measurements were recorded during this trial starting with emergence hours, the number of plants emerged, and unifoliate, 1st trifoliate, 3rd trifoliate, 5th trifoliate, and 7th trifoliate leaf area readings. […] of the measurements that were recorded when this trial was harvested are the number of pods, weight of pods, total soybean seed weight per treatment, and average soybean seed weight per pot.
# The magnesium lactate improved the efficiency with which the plant builds chlorophyll when it was applied foliar in sparingly small quantities to soybean plants early in their growth stage.
smiles,measurement,setting,value
"CC(O)C(=O)[O-].CC(O)C(=O)[O-].[Mg+2] (stereo not drawn) [MgL, magnesium lactate]","overall performance in comparison to conventional magnesium compounds, such magnesium sulfate (MgSO)",corn; corn trial,performed better overall
same,corn biomass,"corn; greenhouse pots, FIG. 14",positive impact
same,growth and development of corn,"corn; greenhouse pots, FIGS. 10-14",positive impact
same,efficiency with which the plant builds chlorophyll,soybean; applied foliar in sparingly small quantities to soybean plants early in their growth stage,improved
same,soybean yield (average soybean seed weight per pot),"soybean; greenhouse pots, FIG. 8",positive impact
same,"overall performance in comparison to conventional magnesium compounds, such magnesium sulfate (MgSO)",soybean; soybean trial,performed better overall
